Assay [1] concerns the target T1, CB1 receptor (Homo sapiens, UniProt P21554). The assay can be described thus: cAMP Assay #2: Hit Hunter cAMP assay, Gi-coupled agonist activity, CB1. It counts as cell-based. Set-up: host or cells: PathHunter cell lines.
The target in assay [2] is T2, CB2 receptor (Homo sapiens, UniProt P34972). Nature of the assay: cAMP Assay #1: CB2 adenylylcyclase assay in CHO cells. It counts as cell-based. Also noted: expressed in transfected cells; host or cells: CHO cells. The essentials:
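Agonism measured as cAMP production in CHO cells expressing human recombinant CB2, incubated with compound for 10 min at 37 °C. EC50 obtained by Hill-equation non-linear regression of mean replicate concentration-response data.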

The target in assay [3] is T1, CB1 receptor. Nature of the assay: cell-based. Set-up: host or cells: PathHunter cell lines.
The target in assay [4] is T2, CB2 receptor. The assay can be described thus: cell-based. Set-up: host or cells: cAMP Hunter cell lines. The essentials:
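PathHunter β-Arrestin enzyme fragment complementation cells, EA-tagged β-Arrestin and PK-tagged receptor, exposed to compound for 90 to 180 minutes at 37° C. or room temperature, 1% vehicle. Chemiluminescence read 1 h after detection reagent; agonist % activity relative to vehicle and MAX control ligand.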

Assay [5] addresses T2, CB2 receptor. The assay can be described thus: cAMP Assay #2: Hit Hunter cAMP assay, Gi-coupled agonist activity, CB2. Set-up: host or cells: cAMP Hunter cell lines. It counts as cell-based. The conditions noted are these: for CB2 fold selectivity: CB1 EC50 / CB2 EC50.
[6] abbreviates: Hit Hunter cAMP, 20 μM forskolin, control ligand CP55,940, read-out: CB1, EC50.
The mark [7] stands for this setting: CHO cells, 10 min 37° C., relative to 100 nM WIN 55212-2, read-out: CB2 Activity EC50 (cAMP).
[8] abbreviates: PathHunter agonist mode, read-out: CB1 Activity (β-Arrestin).
[9] abbreviates: PathHunter agonist mode, read-out: CB2 Activity (β-Arrestin).
[10] abbreviates: Hit Hunter cAMP, 25 μM forskolin, control ligand CP55,940, read-out: CB2, EC50.

Bounds are passed on as bounds.

T2 sequence (P34972 whole entry): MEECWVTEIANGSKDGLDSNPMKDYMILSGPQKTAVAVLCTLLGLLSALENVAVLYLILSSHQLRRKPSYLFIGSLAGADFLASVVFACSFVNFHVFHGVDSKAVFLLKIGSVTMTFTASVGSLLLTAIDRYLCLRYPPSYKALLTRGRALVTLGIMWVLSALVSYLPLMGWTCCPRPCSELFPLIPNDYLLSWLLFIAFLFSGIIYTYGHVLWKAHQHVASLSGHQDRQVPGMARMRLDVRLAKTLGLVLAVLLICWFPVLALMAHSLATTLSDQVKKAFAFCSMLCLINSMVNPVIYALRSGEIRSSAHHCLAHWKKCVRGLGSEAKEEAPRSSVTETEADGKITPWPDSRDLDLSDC
T1 sequence (P21554 whole entry): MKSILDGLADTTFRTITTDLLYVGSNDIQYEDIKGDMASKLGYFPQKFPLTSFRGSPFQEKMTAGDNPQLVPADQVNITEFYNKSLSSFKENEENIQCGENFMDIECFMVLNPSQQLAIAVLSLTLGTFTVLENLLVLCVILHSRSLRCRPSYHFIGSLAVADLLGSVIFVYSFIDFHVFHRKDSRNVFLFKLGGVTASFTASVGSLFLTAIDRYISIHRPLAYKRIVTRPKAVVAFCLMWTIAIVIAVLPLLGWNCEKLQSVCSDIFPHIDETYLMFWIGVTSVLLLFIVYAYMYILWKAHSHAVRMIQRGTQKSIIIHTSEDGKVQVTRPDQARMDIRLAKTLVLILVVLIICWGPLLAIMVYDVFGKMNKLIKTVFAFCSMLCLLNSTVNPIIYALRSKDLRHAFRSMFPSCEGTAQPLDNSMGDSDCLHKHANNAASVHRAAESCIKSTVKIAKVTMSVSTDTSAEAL

As to `CCCCCCC(C)(C)c1cc(O)c2c(c1)OC(C)(C)[C@@H]1CC=C(C(=O)NC[C@H](O)CO)C[C@@H]21` [Compound 56, (6aR,10aR)-N—((S)-2,3-Dihydroxypropyl)-1-hydroxy-6,6-dimethyl-3-(2-methyloctan-2-yl)-6a,7,10,10a-tetrahydro-6H-benzo[c]chromene-9-carboxamide], the EC50 is 250 nM at CB1 receptor [1] (setting [6]); 8.7 nM on CB2 receptor [2] (setting [7]); greater than 3000 nM at CB1 receptor [3] (setting [8]); 6.9 nM at CB2 receptor [4] (setting [9]); 8.4 nM on CB2 receptor [5] (setting [10]). Also, at CB2 receptor [5] (Hit Hunter cAMP), the CB2 fold selectivity is recorded as 30.0.
As to `CCCCCCC(C)(C)c1cc(O)c2c(c1)OC(C)(C)[C@@H]1CC=C(C(=O)OC(C)C)C[C@@H]21` [Compound 29, Isopropyl (6aR,10aR)-1-hydroxy-6,6-dimethyl-3-(2-methyloctan-2-yl)-6a,7,10,10a-tetrahydro-6H-benzo[c]chromene-9-carboxylate], the EC50 on CB1 receptor [1] was 9.6 nM; at CB2 receptor [2] it was 2.3 nM; at CB1 receptor [3] (setting [8]), 47 nM; at CB2 receptor [4] (setting [9]) it was 3 nM; on CB2 receptor [5], 1 nM. This molecule also yielded a CB2 fold selectivity on CB2 receptor [5] (Hit Hunter cAMP) of 9.6.
As for `CCCCCCC(C)(C)c1cc(O)c2c(c1)OC(C)(C)[C@@H]1CC=C(C(=O)NC(C)(C)CCO)C[C@@H]21` [Compound 15, (6aR,10aR)-1-Hydroxy-N-(4-hydroxy-2-methylbutan-2-yl)-6,6-dimethyl-3-(2-methyloctan-2-yl)-6a,7,10,10a-tetrahydro-6H-benzo[c]chromene-9-carboxamide], the EC50 on CB1 receptor [1] (setting [6]) was 448 nM; at CB2 receptor [2] (setting [7]), 7.5 nM; on CB1 receptor [3] (setting [8]), greater than 3000 nM; at CB2 receptor [4] (setting [9]), greater than 3000 nM; on CB2 receptor [5] (setting [10]) it was 2.7 nM. In addition, at CB2 receptor [5] (Hit Hunter cAMP), the CB2 fold selectivity is listed as 164.1.
Turning to `CCCCCCC(C)(C)c1cc(O)c2c(c1)OC(C)(C)[C@@H]1CC=C(C(=O)NC[C@@H](O)CO)C[C@@H]21` [Compound 55, (6aR,10aR)-N—((R)-2,3-Dihydroxypropyl)-1-hydroxy-6,6-dimethyl-3-(2-methyloctan-2-yl)-6a,7,10,10a-tetrahydro-6H-benzo[c]chromene-9-carboxamide], the EC50 on CB1 receptor [1] (setting [6]) is 175 nM; on CB2 receptor [2] (setting [7]), 5.2 nM; on CB1 receptor [3] (setting [8]) it was greater than 3000 nM; at CB2 receptor [4] (setting [9]) it was 6.9 nM; on CB2 receptor [5] (setting [10]), 5.7 nM. This molecule also came in with a CB2 fold selectivity at CB2 receptor [5] (Hit Hunter cAMP) of 30.5.
Turning to `CCCCCCC(C)(C)c1cc(O)c2c(c1)OC(C)(C)[C@@H]1CC=C(C(=O)NC(CO)CO)C[C@@H]21` [Compound 25, (6aR,10aR)-N-(1,3-Dihydroxypropan-2-yl)-1-hydroxy-6,6-dimethyl-3-(2-methyloctan-2-yl)-6a,7,10,10a-tetrahydro-6H-benzo[c]chromene-9-carboxamide], the EC50 on CB1 receptor [1] (setting [6]) was 360 nM; on CB2 receptor [2] (setting [7]), 11 nM; at CB1 receptor [3] (setting [8]), greater than 3000 nM; on CB2 receptor [4] (setting [9]), 10 nM; at CB2 receptor [5] (setting [10]) it was 9 nM. The same molecule yielded a CB2 fold selectivity on CB2 receptor [5] (Hit Hunter cAMP) of 40.0.
For the molecule `CCCCCCC(C)(C)c1cc(O)c2c(c1)OC(C)(C)[C@@H]1CC=C(C(=O)O)C[C@@H]21` [AJA, (6aR,10aR)-1-hydroxy-6,6-dimethyl-3-(2-methyl-2-octanyl)-6a,7,10,10a-tetrahydro-6H-benzo[c]chromene-9-carboxylic acid, reference compound], the EC50 at CB1 receptor [1] worked out at 77.1 nM; at CB2 receptor [2], 21 nM; at CB1 receptor [3], 1240 nM; on CB2 receptor [4], 11 nM; on CB2 receptor [5] it was 7 nM. This molecule gave a CB2 fold selectivity at CB2 receptor [5] (Hit Hunter cAMP) of 11.0.

For the origin of these results see patent US20210284621A1 (priority 2018, published 2021).
